# According to patent US7115797B2, “Mice lacking inward-rectifying potassium channel Kir6.1” (JCR Pharmaceuticals Co., Ltd., priority 2002, dated 2006):
# Experiments:
# ventricular cells [1] = test: Whole-cell membrane currents of isolated ventricular cells (patch-clamp, ramp-pulse protocol); assay type: cell-based, mouse; conditions: ventricular cells of both Kir6.1+/+ and Kir6.1-/- mice
# Method: (§1) Kir6.1 is expressed most abundantly in the heart (24), and is present in cardiomyocytes (25). Therefore, electrophysiological properties of ventricular myocytes isolated from Kir6.1^+/+ and Kir6.1^−/− mice were compared. The quasi-steady-state membrane currents were recorded using a ramp-pulse protocol.
# (§2) Briefly, single ventricular cells of the heart were enzymatically isolated and whole-cell membrane currents were recorded by the patch-clamp method (13). The pipette solution was composed of 20 mM KCl, 1 mM MgCl2, 1 mM phosphocreatine-K2, 110 mM K1-aspartate, 1 mM K2-ATP, 1.0 mM EGTA, 5 mM HEPES (pCa 8.0, pH 7.4). The external solution used was a HEPES-Tyrode solution containing 143 mM NaCl, 5.4 mM KCl, 1.8 mM CaCl2, 0.5 mM MgCl2, 0.33 mM NaHPO4, […], 5 mM HEPES (pH 7.4). Voltage- and current-clamp experiments in heart cells were performed at 36.0° C.
# ventricular cells [2] = test: Action potential recording in isolated ventricular cells (current-clamp); assay type: cell-based, mouse; conditions: for APD at 90% repolarization level (APD90): mean±SE
# Method: as §1, §2
# [3] = tested on: aorta smooth muscle cells; test: Whole-cell membrane currents of aorta smooth muscle cells; assay type: cell-based, mouse; conditions: for density of pinacidil-induced, glibenclamide-sensitive inward K+ current: held at -40 mV, high K+ (140 mM) solution, mean±SE
# Method: Single smooth muscle cells of thoracic aorta were enzymatically isolated and electrophysiological studies were conducted in the same manner as performed in the cardiomyocytes.
# The compositions of the extracellular high K^+ solution and the pipette solution used in this smooth muscle cell experiment were as follows. The external high-K^+ solution: 2.9 mM NaCl, 140 mM KCl, 2.2 mM CaCl2, 1.2 mM MgCl2, 14 mM glucose and 10 mM HEPES-KOH buffer (pH 7.4). The pipette solution: 140 mM KCl, 4 mM MgCl2, 1 mM ATP-K2, 10 mM EGTA and 10 mM HEPES-KOH solution (pH 7.2). The membrane current was measured at room temperature.
# Effect of […] pinacidil was tested on whole-cell membrane currents of aorta smooth muscle cells held at −40 mV in high K^+ (140 mM) solution.
# anesthetized mice [4] = test: Induction of coronary spasm by methylergometrine in vivo (ECG of anesthetized mice)
# Method: (§3) ECG recordings of conscious mice under unrestricted conditions were obtained using an implantable radio frequency transmitter (TA10ETA-F20) (DATA SCIENCES, St. Paul, Minn.), with subcutaneous leads placed in the conventional lead II position. ECGs of anesthetized mice and isolated hearts (Langendorff-perfused heart) were recorded with leads placed on the body surface (lead II) or epicardium.
# (§4) To link dysregulation of vascular tonus and sudden death in Kir6.1^−/− mice, an examination was tried to induce vasospasm using methylergometrine, an ergot alkaloid that stimulates serotonergic receptors and directly triggers the vasoconstriction of vascular smooth muscles (26).
# [5] = tested on: Langendorff-perfused hearts; test: Induction of coronary spasm by methylergometrine in vitro (ECG of Langendorff-perfused hearts); design: species or system mouse; conditions: 20 mg
# Method: as §3, §4
# anesthetized mice [6] = test: Measurement of aortic blood pressure (mean arterial pressure) in anesthetized mice; assay type: in vivo, mouse; conditions: Kir6.1+/+ mice; intravenous 0.3 mg/kg; within 5 minutes; urethane anesthesia
# Method: K^+ channel openers are known to lower arterial blood pressure by relaxing vascular smooth muscles by opening vascular KATP channels. The present inventors examined the vasodilation response to the K^+ channel opener pinacidil in Kir6.1^+/+ and Kir6.1^−/− mice, in vivo at first.
# Hemodynamic measurements were carried out according to the method described by, Suzuki, et al. (12). Changes of mean arterial pressure (MAP) after intravenous injection of 0.3 mg/kg pinacidil are indicated on the ordinate. The points show mean±SE of 6 animals for both groups.
# aortic rings = test: Aortic contraction in isolated aortic preparation (tension of thoracic aortic rings precontracted by norepinephrine); assay type: cell-based, mouse; conditions: precontracted by 0.1 μM norepinephrine, cumulative pinacidil
# Method: The vasodilation response of thoracic aorta to the K^+ channel opener was further examined in vitro by measuring changes in the tension of aortic rings isolated from Kir6.1^+/+ and Kir6.1^−/− mice (FIG. 12). In the same manner as described by Suzuki et al. (13), mechanical function studies of isolated thoracic aorta were carried out. Briefly, the thoracic aorta without the endothelium was removed and cut into rings (4 mm in length). For isometric tension recording, the rings were mounted in a thermostatic organ bath. The bath was perfused with Krebs-Henseleit solution gassed with 95% O2/5% CO2. The aortic rings were precontracted by 0.1 μM norepinephrine, and pinacidil was added in a cumulative manner.
# [7] = anesthetized Kir6.1-/- mice, intravenous injection 20 mg
structure (smiles),measurement,setting,value
COc1ccc(Cl)cc1C(=O)NCCc1ccc(S(=O)(=O)NC(=O)NC2CCCCC2)cc1 [glibenclamide],block of pinacidil-induced outward current,ventricular cells [1]; 1 μM glibenclamide,blocked
same,reversal of pinacidil-induced APD90 shortening,"ventricular cells [2]; addition of 1 μM glibenclamide after 100 μM pinacidil, Kir6.1+/+ and Kir6.1-/- cells",reversed to control levels
same,block of pinacidil-elicited inward K+ currents,[3]; Kir6.1+/+ smooth muscle cells,blocked
CC[C@@H](CO)NC(=O)[C@@H]1C=C2c3cccc4[nH]cc(c34)C[C@H]2N(C)C1 [methylergometrine],significant changes in ECG or death (animals affected),"anesthetized mice [4]; Kir6.1+/+ mice, intravenous injection",none of 7
same,cardiac death concomitantly with changes in ECG (animals affected),"anesthetized mice [4]; Kir6.1-/- mice, intravenous injection 20 mg",5 Kir6.1^−/− mice out of 8
same,depression of ST segments on ECG (animals affected),anesthetized mice [4]; [7],1 animal out of 8
same,elevation of ST segments on ECG (animals affected),anesthetized mice [4]; [7],4 animals out of 8
same,elevation of the ST segment in isolated hearts (hearts affected),[5]; isolated hearts of Kir6.1+/+ mice,0/5
same,elevation of the ST segment in isolated hearts (hearts affected),[5]; isolated hearts of Kir6.1-/- mice,4/4
CC(N/C(=N\C#N)Nc1ccncc1)C(C)(C)C (centres unmarked) [pinacidil],"outward current (ATP-sensitive K+ current, IK,ATP)","ventricular cells [1]; pinacidil 1, 10 or 100 μM, 36.0° C",concentration-dependent increases of an outward current
same,decrease in MAP,anesthetized mice [6],about 30 mmHg
same,APD at 90% repolarization level (APD90),"ventricular cells [2]; Kir6.1+/+ ventricular cells, after 100 μM pinacidil (before: 31.6±2.3 ms)",18.3 ± 2.2 ms
same,APD at 90% repolarization level (APD90),"ventricular cells [2]; Kir6.1-/- ventricular cells, after 100 μM pinacidil (before: 31.1±4.2 ms)",18.3 ± 3.9 ms
same,"density of pinacidil-induced, glibenclamide-sensitive inward K+ current",[3]; Kir6.1+/+ smooth muscle cells,9.53±2.32 pA/pF
same,"density of pinacidil-induced, glibenclamide-sensitive inward K+ current",[3]; Kir6.1-/- smooth muscle cells,0.13±0.07 pA/pF
same,vasodilating effect,aortic rings; aortic rings from Kir6.1+/+ mice,concentration-dependent vasodilating effect
same,vasodilating effect,aortic rings; aortic rings from Kir6.1-/- mice,din not elicit any KATP channel-mediated vasodilating effect
